One block for each molecule: values may come before it.
Key:
Z A1AT = target: T1, Z A1AT (Homo sapiens, UniProt P01009, E366K); assay: A1AT cell secretion assay using HEK-Z cells; type: cell-based; details: 300 nM, 48 h, supernatant A1AT by ELISA, read-out: Median A1AT % increase over vehicle at 300 nM
T1 construct: expressed in transfected cells; host or cells: HEK-Z (human embryonic kidney cells stably transfected with the human Z A1AT gene)
Protocol: HEK-Z cells, a human embryonic kidney cell line stably transfected with the human Z A1AT gene, were plated into 96 well plates (3.0×10^5 cells/ml with 200 μl of media/well) overnight at 37° C. in a humidified atmosphere containing 5% CO2. Following incubation cells were washed with 200 μl serum-free media three times and media was replaced with treatments in quadruplicate using serum free media containing either vehicle, 10 μM suberanilohydroxamic acid (SAHA) or a compound of the invention (at concentrations of 10, 33, 100 and 333 nM) for 48 h in a 37° C. incubator in a final volume of 200 μl. At the end of the incubation step the supernatants were removed from the wells, centrifuged at 1000×g at 4° C. for 10 min and were assayed for human A1AT levels by ELISA (Human Serpin A1/α1-antitrypsin duo set ELISA, R& D Systems, DY1268) per manufacturer's instructions.
Briefly, a 96 well plate was coated with human A1AT capture antibody overnight at room temperature (1:180 dilution from stock, 100 μl final volume/well). The capture antibody was then removed and wells washed three times with 300 μl wash buffer (0.05% Tween 20 in PBS) and then 200 μl reagent diluent ([…]) was incubated in each well for 1 h at room temperature. Diluted samples, standards (125, 250, 500, 1000, 2000, 4000 and 8000 pg/ml A1AT) or blanks were then added to each well in duplicate and the plates were covered with a plate sealer and left at room temperature for 2 h. At the end of the sample incubation step, samples were removed and all wells washed as previously and 100 μl detection antibody (1:180 dilution from stock) was added to each well and incubated for a further 2 h at room temperature. Following incubation with detection antibody, supernatant was removed and wells were washed as previously and 100 μl streptavidin-HRP solution (1:200 dilution from stock) was added to each well for 20 min in the dark. After which, 50 μl stop solution (2M H2SO4) was added and optical density (OD) of each well was read at 450 nm with 570 nm blank subtracted from each well using a microplate reader. A 4-parameter logistic curve was constructed using GraphPad Prism 7 and A1AT concentrations were determined in each sample by interpolation from a standard curve and multiplying by the appropriate dilution factor.

wild-type A1AT (M) = wild-type A1AT (M) (Homo sapiens, UniProt P01009); details: cited from earlier work
Chain of wild-type A1AT (M) (P01009 25-418): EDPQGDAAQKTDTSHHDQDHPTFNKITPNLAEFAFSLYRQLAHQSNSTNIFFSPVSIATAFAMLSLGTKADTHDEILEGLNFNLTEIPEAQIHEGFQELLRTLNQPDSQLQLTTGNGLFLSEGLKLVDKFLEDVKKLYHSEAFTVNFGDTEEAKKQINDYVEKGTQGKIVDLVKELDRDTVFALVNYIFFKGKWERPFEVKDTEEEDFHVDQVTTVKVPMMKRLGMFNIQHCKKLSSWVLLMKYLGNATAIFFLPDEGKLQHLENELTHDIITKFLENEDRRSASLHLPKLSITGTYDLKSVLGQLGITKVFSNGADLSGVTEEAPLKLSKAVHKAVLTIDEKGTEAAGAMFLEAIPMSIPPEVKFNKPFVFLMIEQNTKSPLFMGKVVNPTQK

T1 sequence (P01009 25-418 E366K): as the sequence (P01009 25-418) above, with E342K counted along it

- activation at 0.3 µM (Z A1AT): 130%
Compound: CN(C)C(=O)c1ccc(Cn2ccc(=O)[nH]c2=O)cc1 [Example 1, 4-((2,4-dioxo-3,4-dihydropyrimidin-1(2H)-yl)methyl)-N,N-dimethylbenzamide]

- activation at 0.3 µM (Z A1AT): 175%
Compound: CNC(=O)c1ccc(Cn2ccc(=O)[nH]c2=O)cc1 [Example 2, 4-((2,4-dioxo-3,4-dihydropyrimidin-1(2H)-yl)methyl)-N-methylbenzamide]

- activation at 0.3 µM (Z A1AT): 190%
Compound: CC(C)NC(=O)c1ccc(Cn2ccc(=O)[nH]c2=O)cc1 [Example 3, 4-((2,4-dioxo-3,4-dihydropyrimidin-1(2H)-yl)methyl)-N-isopropylbenzamide]

- activation at 0.3 µM (Z A1AT): 170%
Compound: O=C(NCc1ccc(F)cc1)c1ccc(Cn2ccc(=O)[nH]c2=O)cc1 [Example 4, 4-((2,4-dioxo-3,4-dihydropyrimidin-1(2H)-yl)methyl)-N-(4-fluorobenzyl)benzamide]

Second part, the molecule before the results:

Compound: CN(C)C(=O)c1ccc(Cn2c(=O)cc[nH]c2=O)cc1 [Example 5, 4-((2,6-dioxo-3,6-dihydropyrimidin-1(2H)-yl)methyl)-N,N-dimethylbenzamide]
- activation at 0.3 µM (Z A1AT): 140%

Compound: CCN(C)C(=O)c1ccc(Cn2c(=O)cc[nH]c2=O)cc1 [Example 6, 4-((2,6-dioxo-3,6-dihydropyrimidin-1(2H)-yl)methyl)-N-ethyl-N-methylbenzamide]
- activation at 0.3 µM (Z A1AT): 190%

Compound: CC(C)N(C)C(=O)c1ccc(Cn2c(=O)cc[nH]c2=O)cc1 [Example 7, 4-((2,6-dioxo-3,6-dihydropyrimidin-1(2H)-yl)methyl)-N-isopropyl-N-methylbenzamide]
- activation at 0.3 µM (Z A1AT): 170%

Compound: CN(Cc1ccccc1)C(=O)c1ccc(Cn2c(=O)cc[nH]c2=O)cc1 [Example 8, N-benzyl-4-((2,6-dioxo-3,6-dihydropyrimidin-1(2H)-yl)methyl)-N-methylbenzamide]
- activation at 0.3 µM (Z A1AT): 175%

Compound: CN(CC(F)(F)F)C(=O)c1ccc(Cn2c(=O)cc[nH]c2=O)cc1 [Example 9, 4-((2,6-dioxo-3,6-dihydropyrimidin-1(2H)-yl)methyl)-N-methyl-N-(2,2,2-trifluoroethyl)benzamide]
- activation at 0.3 µM (Z A1AT): 180%

Compound: O=S(=O)(O)c1cccc2c(-c3ccc(Nc4ccccc4)c4c(S(=O)(=O)O)cccc34)ccc(Nc3ccccc3)c12 [bis-ANS, 4,4′-dianilino-1,1′-binaphthyl-5,5′-disulfonate]
- binding to wild-type A1AT (M) (wild-type A1AT (M)): not to wild-type A1AT (M)
